In ChEMBL document CHEMBL5518167, “Degradation of Polo-like Kinase 1 by the Novel Poly-Arginine N-Degron Pathway PROTAC Regulates Tumor Growth in Nonsmall Cell Lung Cancer” (J Med Chem, 2024):
The source made the active and inactive calls. No cut-off for these calls is given here. Where a SMILES comes first, the peptide text is derived from it. Bridges are numbered along the chain shown (N, C = ends). [ ]: non-standard residue; d: D form. His(π-(CH2)8Ph) = N[C@@H](Cc1cncn1CCCCCCCCc1ccccc1)C(=O)O; pT = C[C@@H](OP(=O)(O)O)[C@H](N)C(=O)O; Ahx = NCCCCCC(=O)O

Columns and labels:
PC-9 [1] = experiment: Cytotoxicity against human PC-9 cells incubated for 24 hrs by MTT assay; assay type: functional, cell-based; settings: PC-9, 24 h
UBR/PLK1 (Homo sapiens) [2] = experiment: Protac activity at UBR/PLK1 in human HeLa cells assessed as PLK1 degradation incubated for 24 hrs by immunoblotting analysis; settings: dose 25-100 µM
[3] = as above
UBR/PLK1 (Homo sapiens) [4] = experiment: Protac activity at UBR/PLK1 in human A549 cells assessed as PLK1 degradation at 30 uM incubated for 24 hrs by immunoblotting analysis
UBR/PLK1 (Homo sapiens) [5] = experiment: Protac activity at UBR/PLK1 in human NCI-H1975 cells assessed as PLK1 degradation at 5 to 30 uM preincubated for 24 hrs followed by MG132 addition for 8 hrs by immunoblotting analysis; settings: dose 5-30 µM, time 32.0 hrs
A549 [6] = experiment: Cytotoxicity against human A549 cells incubated for 24 hrs by MTT assay; assay type: functional, cell-based; settings: A549, 24 h
A549 [7] = experiment: Induction of apoptosis in human A549 cells at 25 uM incubated for 24 hrs by fluorescence microscopic analysis; assay type: functional, cell-based
UBR/PLK1 (Homo sapiens) [8] = experiment: Protac activity at UBR/PLK1 in human NCI-H1975 cells assessed as PLK1 degradation at 30 uM incubated for 24 hrs by immunoblotting analysis
UBR/PLK1 (Homo sapiens) [9] = experiment: Protac activity at UBR/PLK1 in human NCI-H1975 cells assessed as PLK1 degradation at 10 uM incubated for 2 to 24 hrs by immunoblotting analysis; settings: time 2-24 hrs
PC-9 [10] = experiment: Induction of cell cycle arrest in human PC-9 cells assessed as delay in S phase progression at 10 uM incubated for 24 hrs by PI staining based flow cytometry analysis; assay type: functional
[11] = Drug uptake in human HeLa cells cell membrane at 10 uM incubated for 24 hrs by PI staining based inverted confocal laser scanning fluorescence microscopic analysis; assay type: ADME
NCI-H1975 [12] = experiment: Antitumor activity against human NCI-H1975 cells harboring L858R/T790M double mutant xenografted in iv dosed nude mouse assessed as tumor growth inhibition administered for every 3 days in presence of 5 mg/kg osimertinib; assay type: functional, organism-based
NCI-H1975 [13] = experiment: Induction of apoptosis in human NCI-H1975 cells at 25 uM incubated for 24 hrs by fluorescence microscopic analysis; assay type: functional, cell-based
[14] = biological target: E3 ubiquitin-protein ligase UBR2 (Homo sapiens) (UniProt Q8IWV8); experiment: Binding affinity to UBR2 (unknown origin) expressed in HEK293T cells incubated for 3 hrs by pull-down assay; assay type: cell-based
Sequence of E3 ubiquitin-protein ligase UBR2 (Homo sapiens) (Q8IWV8 whole entry): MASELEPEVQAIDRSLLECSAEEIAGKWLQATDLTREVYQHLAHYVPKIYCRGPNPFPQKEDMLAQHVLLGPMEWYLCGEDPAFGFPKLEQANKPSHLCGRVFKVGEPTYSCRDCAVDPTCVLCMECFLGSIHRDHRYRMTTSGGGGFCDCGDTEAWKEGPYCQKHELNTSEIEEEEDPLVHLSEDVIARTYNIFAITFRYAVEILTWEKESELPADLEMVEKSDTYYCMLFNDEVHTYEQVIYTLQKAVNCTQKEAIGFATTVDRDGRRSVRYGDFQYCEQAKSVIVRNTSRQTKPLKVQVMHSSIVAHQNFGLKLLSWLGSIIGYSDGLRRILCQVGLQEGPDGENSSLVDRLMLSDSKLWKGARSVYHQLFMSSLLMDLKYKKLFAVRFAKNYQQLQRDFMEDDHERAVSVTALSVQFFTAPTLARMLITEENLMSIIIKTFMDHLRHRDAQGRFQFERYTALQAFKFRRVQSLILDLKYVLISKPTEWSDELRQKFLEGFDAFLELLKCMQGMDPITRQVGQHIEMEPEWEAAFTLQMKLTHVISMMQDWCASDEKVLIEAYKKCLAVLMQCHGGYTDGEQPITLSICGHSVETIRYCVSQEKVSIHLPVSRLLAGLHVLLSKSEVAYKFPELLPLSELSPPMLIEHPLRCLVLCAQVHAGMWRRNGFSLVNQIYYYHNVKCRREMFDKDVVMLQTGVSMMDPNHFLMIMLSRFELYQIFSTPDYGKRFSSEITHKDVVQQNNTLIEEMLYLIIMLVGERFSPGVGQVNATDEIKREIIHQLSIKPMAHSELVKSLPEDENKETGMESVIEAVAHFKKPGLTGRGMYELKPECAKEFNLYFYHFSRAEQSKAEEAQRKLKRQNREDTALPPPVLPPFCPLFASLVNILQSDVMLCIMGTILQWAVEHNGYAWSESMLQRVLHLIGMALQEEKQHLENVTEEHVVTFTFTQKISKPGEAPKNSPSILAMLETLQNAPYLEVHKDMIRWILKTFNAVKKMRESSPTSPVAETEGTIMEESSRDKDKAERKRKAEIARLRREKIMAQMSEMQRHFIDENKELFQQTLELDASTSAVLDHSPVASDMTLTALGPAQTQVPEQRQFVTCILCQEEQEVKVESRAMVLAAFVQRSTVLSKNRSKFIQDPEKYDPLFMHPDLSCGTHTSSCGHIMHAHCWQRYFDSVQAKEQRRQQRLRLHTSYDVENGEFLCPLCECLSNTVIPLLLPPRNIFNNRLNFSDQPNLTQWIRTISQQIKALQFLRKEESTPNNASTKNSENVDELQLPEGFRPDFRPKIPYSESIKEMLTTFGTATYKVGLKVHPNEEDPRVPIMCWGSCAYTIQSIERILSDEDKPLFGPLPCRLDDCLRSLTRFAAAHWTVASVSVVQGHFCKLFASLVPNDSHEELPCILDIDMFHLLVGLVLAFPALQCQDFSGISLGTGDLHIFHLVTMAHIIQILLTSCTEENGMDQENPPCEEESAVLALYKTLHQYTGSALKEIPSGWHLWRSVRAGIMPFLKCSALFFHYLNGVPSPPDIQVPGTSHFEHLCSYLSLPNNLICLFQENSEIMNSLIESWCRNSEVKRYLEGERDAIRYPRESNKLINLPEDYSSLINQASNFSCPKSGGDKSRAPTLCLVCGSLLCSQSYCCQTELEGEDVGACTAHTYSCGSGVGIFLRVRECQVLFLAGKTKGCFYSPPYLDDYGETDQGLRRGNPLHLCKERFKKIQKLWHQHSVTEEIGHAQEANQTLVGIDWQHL

[15] = Drug uptake in human HeLa cells nucleus at 10 uM incubated for 24 hrs by PI staining based inverted confocal laser scanning fluorescence microscopic anlaysis; assay type: ADME, subcellular
UBR/PLK1 (Homo sapiens) [16] = experiment: Protac activity at UBR/PLK1 in human A549 cells assessed as PLK1 degradation at 5 to 30 uM preincubated for 24 hrs followed by MG132 addition for 8 hrs by immunoblotting analysis; settings: dose 5-30 µM, time 32.0 hrs
HeLa = experiment: Antitumor activity against human HeLa cells xenografted in iv dosed nude mouse assessed as reduction in tumor size; assay type: functional, organism-based; settings: dose 10.0 mg/kg
UBR/PLK1 (Homo sapiens) [17] = experiment: Protac activity at UBR/PLK1 in human A549 cells assessed as PLK1 degradation incubated for 24 hrs by immunoblotting analysis; settings: dose 5-25 µM
[18] = as above
UBR/PLK1 (Homo sapiens) [19] = experiment: Protac activity at UBR/PLK1 in human PC-9 cells assessed as PLK1 degradation at 30 uM incubated for 24 hrs by immunoblotting analysis
UBR/PLK1 (Homo sapiens) [20] = experiment: Protac activity at UBR/PLK1 in human PC-9 cells assessed as PLK1 degradation incubated for 24 hrs by immunoblotting analysis; settings: dose 5-25 µM
[21] = as above
[22] = biological target: E3 ubiquitin-protein ligase UBR1 (Homo sapiens) (UniProt Q8IWV7); experiment: Binding affinity to UBR1 (unknown origin) expressed in HEK293T cells incubated for 3 hrs by pull-down assay; assay type: cell-based
Sequence of E3 ubiquitin-protein ligase UBR1 (Homo sapiens) (Q8IWV7 whole entry): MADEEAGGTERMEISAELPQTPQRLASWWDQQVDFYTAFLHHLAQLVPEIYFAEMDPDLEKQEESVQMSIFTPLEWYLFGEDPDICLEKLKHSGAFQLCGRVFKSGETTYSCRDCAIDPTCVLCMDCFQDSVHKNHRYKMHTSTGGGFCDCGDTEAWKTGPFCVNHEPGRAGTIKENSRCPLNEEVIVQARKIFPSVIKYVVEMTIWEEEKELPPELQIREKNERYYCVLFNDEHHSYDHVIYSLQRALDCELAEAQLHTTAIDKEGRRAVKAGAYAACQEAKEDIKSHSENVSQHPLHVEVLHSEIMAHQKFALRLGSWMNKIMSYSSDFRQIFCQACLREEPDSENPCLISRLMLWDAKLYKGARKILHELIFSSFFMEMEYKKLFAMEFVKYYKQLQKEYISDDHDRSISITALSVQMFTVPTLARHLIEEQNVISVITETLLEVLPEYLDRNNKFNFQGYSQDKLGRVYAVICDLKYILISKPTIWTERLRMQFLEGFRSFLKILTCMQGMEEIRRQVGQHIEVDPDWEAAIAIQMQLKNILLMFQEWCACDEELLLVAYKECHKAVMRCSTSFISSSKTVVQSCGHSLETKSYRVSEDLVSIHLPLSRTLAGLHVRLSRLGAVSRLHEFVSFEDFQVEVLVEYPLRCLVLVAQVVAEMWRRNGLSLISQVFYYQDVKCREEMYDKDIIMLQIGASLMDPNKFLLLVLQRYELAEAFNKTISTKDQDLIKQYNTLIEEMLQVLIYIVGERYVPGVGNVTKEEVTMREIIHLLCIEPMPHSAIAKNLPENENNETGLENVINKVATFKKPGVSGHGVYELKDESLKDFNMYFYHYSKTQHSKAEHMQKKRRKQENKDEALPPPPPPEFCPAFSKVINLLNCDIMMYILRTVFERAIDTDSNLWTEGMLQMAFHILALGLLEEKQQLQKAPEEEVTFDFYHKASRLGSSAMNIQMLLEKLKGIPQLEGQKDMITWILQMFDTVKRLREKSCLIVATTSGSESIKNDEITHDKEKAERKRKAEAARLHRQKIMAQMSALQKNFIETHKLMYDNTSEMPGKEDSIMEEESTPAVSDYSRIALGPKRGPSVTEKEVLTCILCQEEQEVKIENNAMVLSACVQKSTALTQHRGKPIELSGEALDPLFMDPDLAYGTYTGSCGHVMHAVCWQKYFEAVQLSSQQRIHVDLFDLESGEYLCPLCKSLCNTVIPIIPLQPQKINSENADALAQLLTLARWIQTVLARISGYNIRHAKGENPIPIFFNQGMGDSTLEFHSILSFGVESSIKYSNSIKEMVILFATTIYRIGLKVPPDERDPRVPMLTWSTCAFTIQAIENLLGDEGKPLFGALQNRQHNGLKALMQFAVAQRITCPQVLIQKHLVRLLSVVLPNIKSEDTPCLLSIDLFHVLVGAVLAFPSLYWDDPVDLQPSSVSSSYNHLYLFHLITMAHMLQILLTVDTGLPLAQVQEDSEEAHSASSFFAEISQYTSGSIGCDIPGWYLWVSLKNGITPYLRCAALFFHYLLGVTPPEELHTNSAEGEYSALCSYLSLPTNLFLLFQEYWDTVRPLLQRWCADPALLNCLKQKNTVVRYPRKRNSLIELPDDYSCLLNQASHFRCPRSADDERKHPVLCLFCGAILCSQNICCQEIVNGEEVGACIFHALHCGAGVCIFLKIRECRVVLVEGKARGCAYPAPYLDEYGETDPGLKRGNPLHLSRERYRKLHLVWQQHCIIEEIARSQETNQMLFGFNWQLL

NCI-H1975 [23] = experiment: Cytotoxicity against human NCI-H1975 cells assessed as change in morphology at 25 uM incubated for 24 hrs by phase contrast microscopic assay; assay type: functional, cell-based
A549 [24] = experiment: Antitumor activity against human A549 cells xenografted in nude mouse assessed as fold reduction in tumor size at 10 mg/kg, iv; assay type: functional
PC-9 [25] = experiment: Induction of cell cycle arrest in human PC-9 cells assessed as G2/M phase arrest at 10 uM incubated for 24 hrs by PI staining based flow cytometry analysis; assay type: functional
[26] = In vivo induction of PLK1 degradation in nude mouse xenografted with human NCI-H1975 cells assessed as reduction in PLK1 protein expression at 10 mg/kg, iv administered for every 3 days in presence of 5 mg/kg osimertinib by Western blotting analysis; assay type: functional; set-up: scale not given: the % may be the effect or the level left
UBR/PLK1 (Homo sapiens) [27] = experiment: Protac activity at UBR/PLK1 in human PC-9 cells assessed as PLK1 degradation at 25 uM incubated for 24 hrs by immunoblotting analysis
A549 [28] = experiment: Induction of cell cycle arrest in human A549 cells assessed as G2/M phase arrest at 10 uM incubated for 24 hrs by PI staining based flow cytometry analysis; assay type: functional
UBR/PLK1 (Homo sapiens) [29] = experiment: Protac activity at UBR/PLK1 in human HeLa cells assessed as PLK1 degradation at 0.3 to 3 uM preincubated for 24 hrs followed by MG132 addition for 8 hrs by immunoblotting analysis; settings: dose 0.3-3 µM
PC-9 [30] = experiment: Induction of cell cycle arrest in human PC-9 cells assessed as fold increase in S phase population at 10 uM incubated for 24 hrs by PI staining based flow cytometry analysis; assay type: functional
UBR/PLK1 (Homo sapiens) [31] = experiment: Protac activity at UBR/PLK1 in human HeLa cells assessed as PLK1 degradation at 5 uM incubated for 24 hrs by immunoblotting analysis
UBR/PLK1 (Homo sapiens) [32] = experiment: Protac activity at UBR/PLK1 in human PC-9 cells assessed as PLK1 degradation at 5 to 30 uM preincubated for 24 hrs followed by MG132 addition for 8 hrs by immunoblotting analysis; settings: dose 5-30 µM, time 32.0 hrs

- Activity (UBR/PLK1 (Homo sapiens) [2]): Dose-Dependent Effect
- DC50 [3]: 2.5 µM
- Emax (UBR/PLK1 (Homo sapiens) [4]): > 60%
- Activity (UBR/PLK1 (Homo sapiens) [5]): inactive
- Emax (UBR/PLK1 (Homo sapiens) [8]): 95%
- Activity (UBR/PLK1 (Homo sapiens) [9]): Active
- Drug uptake [11]: Active
- Activity [14]: Active
- Drug uptake [15]: Active
- Activity (UBR/PLK1 (Homo sapiens) [16]): inactive
- Activity (UBR/PLK1 (Homo sapiens) [17]): Dose-Dependent Effect
- DC50 [18]: 27 µM
- Emax (UBR/PLK1 (Homo sapiens) [19]): 100%
- Activity (UBR/PLK1 (Homo sapiens) [20]): Dose-Dependent Effect
- DC50 [21]: 12 µM
- Activity [22]: Active
- Activity (UBR/PLK1 (Homo sapiens) [27]): > 90%
- Activity (UBR/PLK1 (Homo sapiens) [29]): inactive
- Emax (UBR/PLK1 (Homo sapiens) [31]): 80%
- Activity (UBR/PLK1 (Homo sapiens) [32]): inactive
Compound: C[C@@H](OP(=O)(O)O)[C@@H]1NC(=O)[C@H](Cc2cncn2CCCCCCCCc2ccccc2)NC(=O)[C@@H](NC(=O)CCCCCNC(=O)[C@H](CCCNC(=N)N)NC(=O)[C@H](CCCNC(=N)N)NC(=O)[C@H](CCCNC(=N)N)NC(=O)[C@H](CCCNC(=N)N)NC(=O)[C@H](CCCNC(=N)N)NC(=O)[C@H](CCCNC(=N)N)NC(=O)[C@H](CCCNC(=N)N)NC(=O)[C@H](CCCNC(=N)N)NC(=O)[C@H](CCCNC(=N)N)NC(=O)[C@H](CCCNC(=N)N)NC(=O)[C@H](CCCNC(=N)N)NC(=O)[C@@H](N)CCCNC(=N)N)CCC(=O)NCCCC[C@@H](C(N)=O)NC1=O (H-RRRRRRRRRRRR[Ahx]E[His(π-(CH2)8Ph)][pT]K-NH2; lactam 14-17)
- IC50 (PC-9 [1]): 17.1 µM
- IC50 (A549 [6]): 20.6 µM
- Activity (A549 [7]): Active
- Activity (PC-9 [10]): Active
- Activity (NCI-H1975 [12]): Dose-Dependent Effect
- Activity (NCI-H1975 [13]): Active
- Activity (HeLa): Dose-Dependent Effect
- Activity (NCI-H1975 [23]): Active
- fold change (FC) (A549 [24]): 6.3
- Activity (PC-9 [25]): 9%
- Activity [26]: 75%
- Activity (A549 [28]): 10%
- Activity (PC-9 [30]): Active
